Test results: patent US4514330A, “Carbon-7-substituted atinomycin D analogue” (Trustees of Boston University, priority 1983, dated 1985)
In brackets after ≈: the same amount, converted by molar mass. Like-named read-outs stand apart in the source and are kept apart here. Starred links: 1 amine or outer side, 2 acyl side, 3 side chain; linkers in the order of their positions; H or OH if unused. Positions of bridges follow the written chain, without caps; N, C: chain ends. Non-standard residues stand in square brackets, D forms with d. Residues, ends and D or L forms follow the SMILES beside them. Chains are numbered I, II in the order given. Actinocin(9to1) = Cc1c2oc3c(C)ccc(C(=O)[*:1])c3nc-2c(C(=O)[*:2])c(N)c1=O; NMeV = CN[C@H](C(=O)O)C(C)C; Sar = CNCC(=O)O

What was measured:
[1] = test system: spleen, liver, kidney, large and small intestine, heart, lung, pancreas and adrenals; test: Gross pathology of organ sections at LD10 (MTD) dose levels, day 14; type: in vivo, CDF1 mice
Protocol: In an additional experiment, two animals at LD10 (or MTD) dose levels were sacrificed on day 14, and the organ sections from these animals were evaluated for gross pathology in the following way. Organs, e.g., spleen, liver, kidney, large and small intestine, heart, lung, pancreas and adrenals, were removed and fixed in 10% […] buffer formalin. They were kept immersed for 2 weeks; tissues were dehydrated through graded alcohols (70, 90, 95 and 100%), cleared in cedarwood oil and embedded in paraffin. Sections were cut in 7 μm and mounted with gelatin on microscope slides. After drying, sections were stained with Mayer's hematoxylin and eosin and examined with light microscopy.

proliferating cells = details: cited from earlier work
patients = details: attributed to lack of metabolism / excretion; listed as AMD; cited from earlier work
[2] = test system: DNA-dependent RNA synthesis; details: submicromolar concentrations; cited from earlier work
P-388 leukemia = test: In vivo antitumor activity against P-388 lymphocytic leukemia in CDF1 mice; details: for % ILS (percent increase in life span) / MST (median survival time) / cure (over 55 day survivors): days 1, 5, 9; for minimal effective dose: Mus musculus, P388, ip, read-out: MED (minimum effective dose, 40% increase in life span over control)
Protocol: Studies on in vivo activity of AMD and AMD analogues were carried out with P-388 lymphocytic leukemia in CDF1 hybrid mice. The drugs were administered either daily for 4 successive days (qd 1-4) or on days 1, 5 and 9 (q4d 1, 5, 9) beginning 1 day after tumor implantation.
^a Male CDF1 (18-23 g) mice were inoculated intraperitoneally
(ip) with 10^6 P388 cells on day 0. Drugs were administered, also ip,
in 10% dimethyl sulfoxidesaline on days 1, 5 and 9. Test solutions were
kept at 0-4° C., protected from light, and the stability and
homogeneity were checked periodically by TLC and HPLC.
^b MST = median survival time.
^c % ILS = percent increase in life span.
^d Over 55 day survivors. Average of three experiments. The
^a Drugs administed ip once daily either for 4 successive days (qd
1-4) or on days 1, 5 and 9 (q4d 1, 5 9), starting 1 day after tumor
^b MED (minimum effective dose) is the dose (milligrams/kilogram)
providing an increase in life span of 40% over control in P388

[3] = test system: human lymphoblastic leukemic cells (CCRF-CEM); test: In vitro growth-inhibitory activity against human lymphoblastic leukemic cells (CCRF-CEM) in log phase; type: cell-based; details: Homo sapiens, final growth medium contained 1% Me2SO, log phase, read-out: ID50 (in vitro growth inhibition, CCRF-CEM)
Protocol: ^b Using human lymohoblastic leukemia cells in logplastic growth.
Compounds were dissolved in Me2 So medium, final growth medium

[4] = cited from earlier work
DNA [5] = details: known analogues; cited from earlier work
normal CDF1 male mice = test: Maximum tolerated dose (LD10) in normal, tumor-free CDF1 male mice; type: in vivo; details: deaths during 21 days
Protocol: ^c MTD (maximum tolerated dose) is the lethal dose
(milligrams/kilogram) for 10% normal CDF1 male mice (18-23 g);
were calculated from a plot of log dose vs. percent mortality. Average of
two to three experiments.
Biological Experiments. Determination of LD10 Values. Tumor-free CDF1 male mice weighing 18-23 g were given a broad range of doses of drugs in 10% dimethyl sulfoxide-saline on either days 1, 5 and 9 or on 4 successive days. Drugs were administered intraperitoneally (ip).
The maximum tolerated doses of AMD and analogues that caused deaths in only 10% of the tested animals in 21 days were recorded as MTD. The results are an average of two experiments in each. The MTD values obtained following schedules q4d 1, 5, 9 (three injections) and qd 1-4 (four injections) are recorded in Table IV. These doses are the same as LD10 (lethal dose of 10% of tumor-free animals in 21 days).

DNA [6] = test: Thermal denaturation of DNA (ΔTm), stabilization of DNA helical structure on drug binding; parameters: species or system calf thymus
Protocol: Thermal denaturation studies were carried out according to the procedure described in J. Med. Chem., Vol. 24, p. 1052 (1981). The ΔTm values in Table II give a measure of stabilization of DNA helical structure as a consequence of drug binding.
^a ΔTm = m of DNAdrug complex minus m of DNA.
Concentraiton of drug, 1.4 × 10^-4 M; of DNA (P), 1.4 ×
10^-3 M in 0.01 M phosphate buffer (pH 7.0), 5 × 10^-3 M in
EDTA and 5% dimethyl sulfoxide.
^d Highest dose tested. These values are derived at high temperatur
(67°-75° C.) and may not always correlate with the results
of other DNA-binding studies (e.g., absorptiometric or circular dichroic).
Melting points were obtained with a Thomas-Hoover melting point apparatus at a heating rate of 2° C./min. Column chromatography was accomplished with silica gel powder (Baker No. 3405, 60-20 mesh) or acid alumina (Woelm grade 1). Limited gel-filtration work was done on Sephadex LH-20, particle size 25-100 μm (Pharmacia Fine Chemicals). Thin-layer chromatography was performed on silica gel plates (E. M. Laboratories, Inc.). Solvent systems used were (A) butanol-formic acid-H2 O (75:13:12), (B) EtOAc-acetone (3:1), and (C) Cifferri, the organic phase of the mixture EtOAc-MeOH-H2 O (20:1:20). High-performance liquid chromatography was carried out on a Varian Model 5020 gradient liquid chromatograph equipped with CD-111L chromatography data system and fitted with Varian reversed-phase C18 column with isocratic solvent systems, CH3 -CN-5 mM NH4 OAc buffer, pH 6.4 (68:32 or 62:38), pressure 80-140 atm, flow rate 1.5 mL/min, with UV-visible variable and fixed wavelength dual detectors at 254 and 466 nm. Spectra were determined on the following instruments: IR spectra were obtained with a Perkin-Elmer Model 237 Infra Cord with KBr micropellets or chloroform solutions; UV-visible spectra were obtained on a Gilford 250 spectrophotometer, which, with the addition of a base-line reference compensator (Analog Multiplexer 6064) and thermoprogrammer, auto four cell programmer and thermoelectric cell holder 2577, was used to obtain thermal denaturation curves; NMR spectra were obtained on a JOEL FQ-90-90MHZ spectrometer equipped with Fourier transform; and CD spectra were obtained on a Cary 61 spectrophotometer. All elemental analyses were within ±0.4% of the theoretical values. Actinomycin D, batch no. NCS 3053, lot L554651-0-10, was provided by Natural Products Branch, National Cancer Institute, Silver Spring, Md. Calf thymus DNA type 1 was purchased from Sigma Chemical Co.

[7] = test system: Wilm's tumor, gestational choriocarcinoma, and Kaposi's sarcoma; details: cited from earlier work
[8] = three injections ip, q4d 1, 5, 9

Cc1c2oc3c(C)ccc(C(=O)N[C@@H]4C(=O)N[C@H](C(C)C)C(=O)N5CCC[C@H]5C(=O)N(C)CC(=O)N(C)[C@@H](C(C)C)C(=O)O[C@@H]4C)c3nc-2c(C(=O)N[C@@H]2C(=O)N[C@H](C(C)C)C(=O)N3CCC[C@H]3C(=O)N(C)CC(=O)N(C)[C@@H](C(C)C)C(=O)O[C@@H]2C)c(N)c1=O [Compound 1b, Actinomycin D, reference compound] (I: T[dV]P[Sar][NMeV] / II: T[dV]P[Sar][NMeV]; ester I:1-I:C, II:1-II:C; linker I:N-II:N via Actinocin(9to1))
pathology of spleen sections [1]: haematopoiesis indicative of bone-marrow toxicity | cytotoxicity in proliferating cells versus nonproliferating (liver, kidney, muscle) (proliferating cells): far more cytotoxic in those proliferating cells | toxicity (patients): acute and cumulative toxicity | inhibition of DNA-dependent RNA synthesis [2]: strongly inhibits | % ILS (percent increase in life span) (P-388 leukemia; 0.031 mg/kg ip): 18% | MST (median survival time) (P-388 leukemia; 0.031 mg/kg ip): 13 days | cure (over 55 day survivors) (P-388 leukemia; 0.031 mg/kg ip): 0/7 | % ILS (percent increase in life span) (P-388 leukemia; 0.062 mg/kg ip): 45% | MST (median survival time) (P-388 leukemia; 0.062 mg/kg ip): 16 days | cure (over 55 day survivors) (P-388 leukemia; 0.062 mg/kg ip): 1/7 | % ILS (percent increase in life span) (P-388 leukemia; 0.125 mg/kg ip): 136% | MST (median survival time) (P-388 leukemia; 0.125 mg/kg ip): 26 days | cure (over 55 day survivors) (P-388 leukemia; 0.125 mg/kg ip): 0/7 | % ILS (percent increase in life span) (P-388 leukemia; 0.250 mg/kg ip): 55% | MST (median survival time) (P-388 leukemia; 0.250 mg/kg ip): 17 days | cure (over 55 day survivors) (P-388 leukemia; 0.250 mg/kg ip): 0/7 | MST (median survival time) (P-388 leukemia; 0.375 mg/kg ip): 9 days | minimal effective dose (P-388 leukemia; four injections ip, qd 1-4): 0.05 mg/kg | minimal effective dose (P-388 leukemia; [8]): 0.0625 mg/kg | therapeutic index: MTD/MED (P-388 leukemia; four injections ip, qd 1-4): 3 | activity in respect of % ILS, 1b versus 2b (P-388 leukemia; ip, q4d 1, 5, 9): approximately equiactive | breadth of dose-response curve (P-388 leukemia; ip, q4d 1, 5, 9): very narrow | therapeutic index: MTD/MED (P-388 leukemia; [8]): 4 | IC50 [3]: 0.06 µg/mL (≈ 0.0478 µM) | in vivo metabolism [4]: not metabolized in vivo | mode of DNA binding, same way as AMD (DNA [5]): by intercalation of the chromophore and concomitant hydrogen and hydrophobic interactions of the peptide lactones | MTD (maximum tolerated dose, lethal for 10% of normal mice; = LD10) (normal CDF1 male mice; four injections ip, qd 1-4): 0.15 milligrams/kilogram | MTD (maximum tolerated dose, lethal for 10% of normal mice; = LD10) (normal CDF1 male mice; [8]): 0.25 milligrams/kilogram | Tm (ΔTm = Tm of DNA-drug complex minus Tm of DNA) (DNA [6]; drug 1.4 × 10^-4 M, DNA (P) 1.4 × 10^-3 M, 0.01 M phosphate buffer pH 7.0, EDTA, 5% dimethyl sulfoxide): 7.1 ± 0.15 °C | DNA melting profile / ΔTm character of the DNA complex (DNA [6]; thermal denaturation, words): sharp and smooth | activity in several tumors [7]: potent activity
